{"source": "patent US20070093469A1", "about": "“Substituted azetidine compounds as cyclooxygenase-1-cyclooxygenase-2 inhibitors, and their preparation and use as medicaments” (LABORATORIOS DEL DR. ESTEVE S.A, priority 2004, published 2007)", "key": {"rats": {"tested_on": "rats", "test": "Analgesia test in rats (carrageenan, thermal stimulus)", "assay_type": "in vivo", "settings": "Rattus norvegicus, oral route, 2 hours after administration, read-out: ED50 analgesic activity", "method": "III: Analgesia Test in Rats\nThe inventive compounds are tested for analgesic activity as described above is carried out as described in the publication of K. Hargreaves et al., Pain, 32, 77-88, (1988). The respective part of the description is hereby incorporated by reference and forms part of the disclosure.\nThe rats are transferred to the experimentation laboratory, where they remain in groups of 5, in makrolon cages with a barred floor to avoid coprophagy. At the beginning of the experiment, water and food were removed, and animals were adequately weighed and marked.\nEach rat receives via subplantar injection 0.1 ml of sterile saline solution into the left hind paw, followed by 0.1 ml of a 2% (weight/volume) carrageenan suspension in sterile saline solution into the right hind paw.\nTwo hours after the subplantar injections of carrageenan and vehicle, each rat receives by oral route the compounds to be tested, suspended in 5% (weight/volume) gum arabic, administered at 10 ml per kg of body weight. Two hours after the administration of the compounds to be tested, the values for analgesic activity are determined. To this purpose, the rats are transferred to the methacrylate chambers of an analgesimeter provided with a glass floor. Once the acclimatisation period in the chambers is over (i.e. after 5 minutes) an infra-red beam lamp capable of producing a thermal stimulus, is placed below the rat's paws.\nThe thermal stimulus, previously calibrated at 10 Amperes, is applied to each of the hind paws with at least 1 minute intervals. The response of the rats to pain consists of raising the paw, thus avoiding contact with the floor. […] The rats are tested once only to avoid possible learning behaviour."}, "Cox-1 enzyme": {"target": "T1, Cox-1 enzyme (Ovis aries, UniProt P05979)", "T1 construct": "purchased Cayman Chemical 60100", "T1 sequence (P05979 25-600)": "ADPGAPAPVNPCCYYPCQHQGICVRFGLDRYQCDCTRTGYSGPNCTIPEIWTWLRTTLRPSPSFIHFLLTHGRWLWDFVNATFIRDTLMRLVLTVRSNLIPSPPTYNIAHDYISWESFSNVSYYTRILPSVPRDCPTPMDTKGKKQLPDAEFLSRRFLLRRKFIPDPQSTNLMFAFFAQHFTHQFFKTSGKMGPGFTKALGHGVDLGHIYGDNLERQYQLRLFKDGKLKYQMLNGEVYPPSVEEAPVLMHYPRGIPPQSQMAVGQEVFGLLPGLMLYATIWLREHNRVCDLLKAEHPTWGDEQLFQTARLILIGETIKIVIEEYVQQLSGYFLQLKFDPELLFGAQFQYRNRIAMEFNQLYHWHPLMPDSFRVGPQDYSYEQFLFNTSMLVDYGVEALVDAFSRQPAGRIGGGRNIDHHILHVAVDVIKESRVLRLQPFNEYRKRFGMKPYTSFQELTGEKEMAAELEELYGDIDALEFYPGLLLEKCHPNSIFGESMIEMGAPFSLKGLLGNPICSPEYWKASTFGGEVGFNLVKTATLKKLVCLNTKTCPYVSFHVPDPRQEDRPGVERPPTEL", "test": "Cox-1/Cox-2 enzyme assay (Cox-1)", "assay_type": "biochemical", "settings": "for IC50: enzyme assay", "method": "I. Cox-1/Cox-2 Enzyme Assay:\nThe Cox-1/Cox-2 enzyme assay for the inventive azetidine compounds is carried out according to the following description:\nImmediately after the addition of the substrate, the slope corresponding to the optical density increase at 480 nm is recorded for 1 minute. The reaction is monitored with a Hewlett-Packard 8452A spectrophotometer."}, "Cox-2": {"target": "T2, Cox-2 (Homo sapiens, UniProt P35354)", "T2 construct": "0.5 ml of fresh human blood; from tissue; host or cells: fresh human whole blood stimulated with E. coli 0111:B4 LPS", "T2 sequence (P35354 18-604)": "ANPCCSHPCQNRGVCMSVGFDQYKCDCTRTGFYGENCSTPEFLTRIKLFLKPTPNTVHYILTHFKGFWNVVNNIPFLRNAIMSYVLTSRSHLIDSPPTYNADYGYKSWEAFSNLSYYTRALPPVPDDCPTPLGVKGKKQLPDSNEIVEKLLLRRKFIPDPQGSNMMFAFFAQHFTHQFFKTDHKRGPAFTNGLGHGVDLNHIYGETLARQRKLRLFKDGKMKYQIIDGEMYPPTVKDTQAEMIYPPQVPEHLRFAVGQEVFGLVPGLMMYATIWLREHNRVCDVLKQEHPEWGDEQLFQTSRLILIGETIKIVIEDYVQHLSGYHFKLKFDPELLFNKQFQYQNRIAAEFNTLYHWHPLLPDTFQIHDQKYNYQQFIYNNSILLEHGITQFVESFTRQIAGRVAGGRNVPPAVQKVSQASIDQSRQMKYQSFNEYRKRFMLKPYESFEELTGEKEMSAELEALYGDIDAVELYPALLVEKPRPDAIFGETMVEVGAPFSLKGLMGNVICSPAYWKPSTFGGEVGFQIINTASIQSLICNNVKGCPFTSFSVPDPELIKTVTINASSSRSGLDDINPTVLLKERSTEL", "test": "Cox-2 activity in human whole blood (LPS, PGE2)", "assay_type": "cell-based", "settings": "read-out: hWB inhibition COX-2 IC50", "method": "II. Determination of Cox-1- and Cox-2-Activity in Human Whole Blood\nThe Cox-1- and Cox-2-activity in human whole blood is determined according to a modification of the method described in the publication of C. Brideau et al., “A human whole blood assay for clinical evaluation of biochemical efficacy of cyclooxygenase inhibitors”, Inflamm Res 1996; 45: 68-74. The respective part of the description is hereby incorporated by reference and forms part of the present disclosure.\nFor Cox-2 activity determination, tubes are prepared with 2 μl of the compound to be tested or DMSO, 12 μg/ml of aspirine, 9 μl of 1% (weight/volume) sodium heparine and 0.5 ml of fresh human blood. Samples are pre-incubated at 37° C. during 15 minutes and E. coli 0111:B4 LPS (from Sigma Chemical, St. Louis, Mo. U.S.A., catalogue number L-3012) are added for incubation during 24 h at 37° C. The samples are centrifuged for 100 μl of plasma collection. 400 μl of Ethyl acetate and 1% (volume/volume) methanol are added to each sample and the tubes are stirred and centrifuged for 10 minutes at 5000 g at 4° C. 300μl of supernatant are aspirated and evaporated under nitrogen atmosphere. Prostaglandin E2 concentration is quantified using an assay kit from Cayman Chemical, Ann-Arbor, Mich., U.S.A. (Catalogue number: 514010 ) after reconstitution into 300 μl assay buffer supplied in the assay kit."}}}
{"smiles": "CC1C(O)CN1C(=O)c1cc(C(C)(C)C)c(O)c(C(C)(C)C)c1", "note": "(stereo not drawn) [Example 4, (3,5-di-tert-butyl-4-hydroxy-phenyl)-(3-hydroxy-2-methyl-azetidin-1-yl)-methanone]", "values": [{"measurement": "ED50", "setting": "rats", "value": 0.7, "unit": "mg/kg"}, {"measurement": "IC50", "setting": "Cox-1 enzyme", "value": 246000, "unit": "nM"}, {"measurement": "IC50", "setting": "Cox-2", "value": 500, "unit": "nM"}]}
{"smiles": "CC(C)(C)c1cc(C(=O)N2CC(O)C2)cc(C(C)(C)C)c1", "note": "[Example 2, (3,5-di-tert-butyl-phenyly)-(3-hydroxy-azetidin-1-yl)-methanone]", "values": [{"measurement": "ED50", "setting": "rats", "value": 1.65, "unit": "mg/kg"}, {"measurement": "inhibition at 50 µM", "setting": "Cox-1 enzyme; read-out: % inhibition 5 × 10^−5 M COX-1", "value": 9, "unit": "%"}, {"measurement": "IC50", "setting": "Cox-2", "value": 800, "unit": "nM"}]}
{"smiles": "CC(C)(C)c1cc(C(=O)N2CC(O)C2)cc2c1OCC2(C)C", "note": "[Example 14, (7-tert-butyl-3,3-dimethyl-2,3-dihydro-benzofuran-5-yl)-(3-hydroxy-azetidin-1-yl)-methanone]", "values": [{"measurement": "ED50", "setting": "rats", "value": 3, "unit": "mg/kg"}, {"measurement": "IC50", "setting": "Cox-1 enzyme", "value": 48300, "unit": "nM"}, {"measurement": "IC50", "setting": "Cox-2", "value": 100, "unit": "nM"}]}
